# Columns and labels:
# [1] = test system: Mino cells; assay: Antiproliferative effect, MTS cell viability assay, Mino cells; assay type: cell-based; conditions: Homo sapiens, MINO, Mino mantle cell lymphoma cells; read-out: IC50 (anti-proliferation) Mino cells
# How it was run: (§1)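 MTS read-out, A490 of formazan from metabolically active cells; compound 0–10 μM (0, 0.001, 0.01, 0.1, 1, 10 μM), 72 h exposure.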
# [2] = test system: JeKo-1 cells; assay: Antiproliferative effect, MTS cell viability assay, JeKo-1 cells; assay type: cell-based; conditions: Homo sapiens; JeKo-1 mantle cell lymphoma cells; read-out: IC50 (anti-proliferation) JeKO-1 cells
# How it was run: as §1
# [3] = molecular target: BTK (Homo sapiens, UniProt Q06187); assay: Degradation of BTK protein in Namalwa cells (Western blot; DC50, Dmax); conditions: for degradation of BTK protein: Namalwa B lymphocyte cells, various concentrations, 24 hours, Western blot; for DC50: read-out: DC50 (BTK degradation), concentration giving 50% reduction of BTK expression level, cell line not given; for Dmax: read-out: Dmax (BTK degradation)
# BTK, sequence (Q06187 whole entry): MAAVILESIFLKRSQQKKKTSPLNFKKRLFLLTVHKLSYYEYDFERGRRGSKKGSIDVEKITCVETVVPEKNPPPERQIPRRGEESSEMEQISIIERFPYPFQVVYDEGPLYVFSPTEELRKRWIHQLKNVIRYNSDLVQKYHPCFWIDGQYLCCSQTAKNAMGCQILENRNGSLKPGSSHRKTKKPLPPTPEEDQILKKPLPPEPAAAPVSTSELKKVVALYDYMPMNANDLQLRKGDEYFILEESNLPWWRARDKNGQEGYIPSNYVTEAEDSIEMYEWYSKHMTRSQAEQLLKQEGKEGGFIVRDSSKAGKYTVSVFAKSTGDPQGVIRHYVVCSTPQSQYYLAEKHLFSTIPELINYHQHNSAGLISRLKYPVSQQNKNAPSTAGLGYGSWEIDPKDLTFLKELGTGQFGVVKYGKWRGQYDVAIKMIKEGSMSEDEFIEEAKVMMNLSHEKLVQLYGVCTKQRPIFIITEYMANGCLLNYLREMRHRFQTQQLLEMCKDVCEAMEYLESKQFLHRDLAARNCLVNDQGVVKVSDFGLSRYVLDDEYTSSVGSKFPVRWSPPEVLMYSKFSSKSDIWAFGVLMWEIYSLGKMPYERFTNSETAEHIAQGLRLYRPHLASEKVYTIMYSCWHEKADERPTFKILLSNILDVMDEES
degradation of BTK protein [3],DC50 [3] [nM],Dmax [3] [%],SMILES,IC50 [1] [nM],IC50 [2] [nM]
–,10 to 50,> 90,"Nc1ncnc2c1c(-c1ccc(Oc3ccccc3)cc1)nn2C1CCN(C[C@H]2CCN(CC3CN(c4ccc5c(c4)C(=O)N(C4CCC(=O)NC4=O)C5=O)C3)C2)CC1 (stereo partly drawn) [Compound 423a, 5-(3-(((R)-3-((4-(4-amino-3-(4-phenoxyphenyl)-1H-pyrazolo[3,4-d]pyrimidin-1-yl)piperidin-1-yl)methyl)pyrrolidin-1-yl)methyl)azetidin-1-yl)-2-(2,6-dioxopiperidin-3-yl)isoindoline-1,3-dione]",< 1000,1000 to 10000
–,10 to 50,> 90,"Nc1ncnc2c1c(-c1ccc(Oc3ccccc3)cc1)nn2C1CCN(C[C@@H]2CCN(CC3CN(c4ccc5c(c4)C(=O)N(C4CCC(=O)NC4=O)C5=O)C3)C2)CC1 (stereo partly drawn) [Compound 423b, 5-(3-(((S)-3-((4-(4-amino-3-(4-phenoxyphenyl)-1H-pyrazolo[3,4-d]pyrimidin-1-yl)piperidin-1-yl)methyl)pyrrolidin-1-yl)methyl)azetidin-1-yl)-2-(2,6-dioxopiperidin-3-yl)isoindoline-1,3-dione]",< 1000,1000 to 10000
–,10 to 50,> 90,"Nc1ncnc2c1c(-c1ccc(Oc3ccccc3)cc1)nn2C1CCN([C@@H]2CCN(CC3CN(c4ccc5c(c4)C(=O)N(C4CCC(=O)NC4=O)C5=O)C3)C2)CC1 (stereo partly drawn) [Compound 425a, 5-(3-(((R)-3-(4-(4-amino-3-(4-phenoxyphenyl)-1H-pyrazolo[3,4-d]pyrimidin-1-yl)piperidin-1-yl)pyrrolidin-1-yl)methyl)azetidin-1-yl)-2-(2,6-dioxopiperidin-3-yl)isoindoline-1,3-dione]",1000 to 10000,1000 to 10000
–,–,> 90,"Nc1ncnc2c1c(-c1ccc(Oc3ccccc3)cc1)nn2C1CCN([C@H]2CCN(CC3CN(c4ccc5c(c4)C(=O)N(C4CCC(=O)NC4=O)C5=O)C3)C2)CC1 (stereo partly drawn) [Compound 425b, 5-(3-(((S)-3-(4-(4-amino-3-(4-phenoxyphenyl)-1H-pyrazolo[3,4-d]pyrimidin-1-yl)piperidin-1-yl)pyrrolidin-1-yl)methyl)azetidin-1-yl)-2-(2,6-dioxopiperidin-3-yl)isoindoline-1,3-dione]",1000 to 10000,1000 to 10000
–,> 50,> 90,"Nc1ncnc2c1c(-c1ccc(Oc3ccccc3)cc1)nn2C1CCN(C[C@H]2CCN(CC3CN(CC4CN(c5ccc6c(c5)C(=O)N(C5CCC(=O)NC5=O)C6=O)C4)C3)C2)CC1 (stereo partly drawn) [Compound 427a, 5-(3-((3-(((R)-3-((4-(4-amino-3-(4-phenoxyphenyl)-1H-pyrazolo[3,4-d]pyrimidin-1-yl)piperidin-1-yl)methyl)pyrrolidin-1-yl)methyl)azetidin-1-yl)methyl)azetidin-1-yl)-2-(2,6-dioxopiperidin-3-yl)isoindoline-1,3-dione]",1000 to 10000,1000 to 10000
–,> 50,> 90,"Nc1ncnc2c1c(-c1ccc(Oc3ccccc3)cc1)nn2C1CCN(C[C@@H]2CCN(CC3CN(CC4CN(c5ccc6c(c5)C(=O)N(C5CCC(=O)NC5=O)C6=O)C4)C3)C2)CC1 (stereo partly drawn) [Compound 427b, 5-(3-((3-(((S)-3-((4-(4-amino-3-(4-phenoxyphenyl)-1H-pyrazolo[3,4-d]pyrimidin-1-yl)piperidin-1-yl)methyl)pyrrolidin-1-yl)methyl)azetidin-1-yl)methyl)azetidin-1-yl)-2-(2,6-dioxopiperidin-3-yl)isoindoline-1,3-dione]",1000 to 10000,1000 to 10000

# Continued, molecule first:
SMILES,degradation of BTK protein [3],DC50 [3] [nM],Dmax [3] [%],IC50 [1] [nM],IC50 [2] [nM]
"Nc1ncnc2c1c(-c1ccc(Oc3ccccc3)cc1)nn2C1CCN(CC2CCN(/C=C\C(=O)CN3CCN(c4ccc5c(c4)CN(C4CCC(=O)NC4=O)C5=O)CC3)CC2)CC1 (stereo not shown) [Compound 421, (Z)-3-(5-(4-(4-(4-((4-(4-amino-3-(4-phenoxyphenyl)-1H-pyrazolo[3,4-d]pyrimidin-1-yl)piperidin-1-yl)methyl)piperidin-1-yl)-2-oxobut-3-en-1-yl)piperazin-1-yl)-1-oxoisoindolin-2-yl)piperidine-2,6-dione]",dose-dependent degradation,< 10,> 90,1000 to 10000,1000 to 10000
"Nc1ncnc2c1c(-c1ccc(Oc3ccccc3)cc1)nn2C1CCN(CC2CCN(CCCC(=O)N3CCC(c4ccc5c(c4)CN(C4CCC(=O)NC4=O)C5=O)CC3)CC2)CC1 (stereo not shown) [Compound 422, 3-(5-(1-(4-(4-((4-(4-amino-3-(4-phenoxyphenyl)-1H-pyrazolo(3,4-d)pyrimidin-1-yl)piperidin-1-yl)methyl)piperidin-1-yl)butanoyl)piperidin-4-yl)-1-oxoisoindolin-2-yl)piperidine-2,6-dione]",–,< 10,> 90,< 1000,< 1000
"Nc1ncnc2c1c(-c1ccc(Oc3ccccc3)cc1)nn2C1CCN(CC2CCN(CC3CN(c4ccc5c(c4)C(=O)N(C4CCC(=O)NC4=O)C5=O)C3)C2)CC1 (stereo not shown) [Compound 423, 5-(3-((3-((4-(4-amino-3-(4-phenoxyphenyl)-1H-pyrazolo(3,4-d)pyrimidin-1-yl)piperidin-1-yl)methyl)pyrrolidin-1-yl)methyl)azetidin-1-yl)-2-(2,6-dioxopiperidin-3-yl)isoindoline-1,3-dione]",dose-dependent degradation,10 to 50,> 90,< 1000,1000 to 10000
"Nc1ncnc2c1c(-c1ccc(Oc3ccccc3)cc1)nn2C1CCN(CC2CCN(CC3CN(c4ccc5c(c4)CN(C4CCC(=O)NC4=O)C5=O)C3)C2)CC1 (stereo not shown) [Compound 424, 3-(5-(3-((3-((4-(4-amino-3-(4-phenoxyphenyl)-1H-pyrazolo[3,4-d]pyrimidin-1-yl)piperidin-1-yl)methyl)pyrrolidin-1-yl)methyl)azetidin-1-yl)-1-oxoisoindolin-2-yl)piperidine-2,6-dione]",–,10 to 50,> 90,< 1000,< 1000
"Nc1ncnc2c1c(-c1ccc(Oc3ccccc3)cc1)nn2C1CCN(C2CCN(CC3CN(c4ccc5c(c4)CN(C4CCC(=O)NC4=O)C5=O)C3)C2)CC1 (stereo not shown) [Compound 426, 3-(5-(3-((3-(4-(4-amino-3-(4-phenoxyphenyl)-1H-pyrazolo[3,4-d]pyrimidin-1-yl)piperidin-1-yl)pyrrolidin-1-yl)methyl)azetidin-1-yl)-1-oxoisoindolin-2-yl)piperidine-2,6-dione]",–,10 to 50,> 90,< 1000,< 1000
"Nc1ncnc2c1c(-c1ccc(Oc3ccccc3)cc1)nn2C1CCN(CC2CCN(CC3CN(CC4CN(c5ccc6c(c5)C(=O)N(C5CCC(=O)NC5=O)C6=O)C4)C3)C2)CC1 (stereo not shown) [Compound 427, 5-(3-((3-((3-((4-(4-amino-3-(4-phenoxyphenyl)-1H-pyrazolo(3,4-d)pyrimidin-1-yl)piperidin-1-yl)methyl)pyrrolidin-1-yl)methyl)azetidin-1-yl)methyl)azetidin-1-yl)-2-(2,6-dioxopiperidin-3-yl)isoindoline-1,3-dione]",dose-dependent degradation,> 50,> 90,1000 to 10000,1000 to 10000
"Nc1ncnc2c1c(-c1ccc(Oc3ccccc3)cc1)nn2C1CCN(CC2CCN(CC3CN(CC4CN(c5ccc6c(c5)CN(C5CCC(=O)NC5=O)C6=O)C4)C3)C2)CC1 (stereo not shown) [Compound 428, 3-(5-(3-((3-((3-((4-(4-amino-3-(4-phenoxyphenyl)-1H-pyrazolo[3,4-d]pyrimidin-1-yl)piperidin-1-yl)methyl)pyrrolidin-1-yl)methyl)azetidin-1-yl)methyl)azetidin-1-yl)-1-oxoisoindolin-2-yl)piperidine-2,6-dione]",–,10 to 50,> 90,1000 to 10000,1000 to 10000
"Nc1ncnc2c1c(-c1ccc(Oc3ccccc3)cc1)nn2C1CCN(CC2CCN(CC3CN(c4ccc5c(c4)C(=O)N(C4CCC(=O)NC4=O)C5=O)C3)CC2)CC1 (stereo not shown) [Compound 429, 5-(3-((4-((4-(4-amino-3-(4-phenoxyphenyl)-1H-pyrazolo(3,4-d)pyrimidin-1-yl)piperidin-1-yl)methyl)piperidin-1-yl)methyl)azetidin-1-yl)-2-(2,6-dioxopiperidin-3-yl)isoindoline-1,3-dione]",–,10 to 50,> 90,< 1000,1000 to 10000
"Nc1ncnc2c1c(-c1ccc(Oc3ccccc3)cc1)nn2C1CCN(CC2CCN(CC3CN(c4ccc5c(c4)CN(C4CCC(=O)NC4=O)C5=O)C3)CC2)CC1 (stereo not shown) [Compound 430, 3-(5-(3-((4-((4-(4-amino-3-(4-phenoxyphenyl)-1H-pyrazolo[3,4-d]pyrimidin-1-yl)piperidin-1-yl)methyl)piperidin-1-yl)methyl)azetidin-1-yl)-1-oxoisoindolin-2-yl)piperidine-2,6-dione]",–,10 to 50,> 90,< 1000,< 1000
"Nc1ncnc2c1c(-c1ccc(Oc3ccccc3)cc1)nn2C1CCN(CC2CCN(CC3CCN(CC4CN(c5ccc6c(c5)C(=O)N(C5CCC(=O)NC5=O)C6=O)C4)CC3)CC2)CC1 (stereo not shown) [Compound 431, 5-(3-((4-((4-((4-(4-amino-3-(4-phenoxyphenyl)-1H-pyrazolo(3,4-d)pyrimidin-1-yl)piperidin-1-yl)methyl)piperidin-1-yl)methyl)piperidin-1-yl)methyl)azetidin-1-yl)-2-(2,6-dioxopiperidin-3-yl)isoindoline-1,3-dione]",dose-dependent degradation,> 50,> 90,< 1000,< 1000

# From patent publication US12139492B2 (Endotarget Inc., priority 2021, dated 2024)
